Reference: article PMC10619143, “Development of a covalent cereblon-based PROTAC employing a fluorosulfate warhead” (RSC Chemical Biology, 2023)

Biological target: T1, cereblon (CRBN) (Homo sapiens, UniProt Q96SW2)
T1 construct: CRBN-DDB1ΔB complex; with DDB1ΔB
Assay: intact protein MS covalent labelling and MS/MS site mapping (also cellular NanoBRET IC50 […] at […] h)
Format: binding

T1 sequence (Q16531 2-1140): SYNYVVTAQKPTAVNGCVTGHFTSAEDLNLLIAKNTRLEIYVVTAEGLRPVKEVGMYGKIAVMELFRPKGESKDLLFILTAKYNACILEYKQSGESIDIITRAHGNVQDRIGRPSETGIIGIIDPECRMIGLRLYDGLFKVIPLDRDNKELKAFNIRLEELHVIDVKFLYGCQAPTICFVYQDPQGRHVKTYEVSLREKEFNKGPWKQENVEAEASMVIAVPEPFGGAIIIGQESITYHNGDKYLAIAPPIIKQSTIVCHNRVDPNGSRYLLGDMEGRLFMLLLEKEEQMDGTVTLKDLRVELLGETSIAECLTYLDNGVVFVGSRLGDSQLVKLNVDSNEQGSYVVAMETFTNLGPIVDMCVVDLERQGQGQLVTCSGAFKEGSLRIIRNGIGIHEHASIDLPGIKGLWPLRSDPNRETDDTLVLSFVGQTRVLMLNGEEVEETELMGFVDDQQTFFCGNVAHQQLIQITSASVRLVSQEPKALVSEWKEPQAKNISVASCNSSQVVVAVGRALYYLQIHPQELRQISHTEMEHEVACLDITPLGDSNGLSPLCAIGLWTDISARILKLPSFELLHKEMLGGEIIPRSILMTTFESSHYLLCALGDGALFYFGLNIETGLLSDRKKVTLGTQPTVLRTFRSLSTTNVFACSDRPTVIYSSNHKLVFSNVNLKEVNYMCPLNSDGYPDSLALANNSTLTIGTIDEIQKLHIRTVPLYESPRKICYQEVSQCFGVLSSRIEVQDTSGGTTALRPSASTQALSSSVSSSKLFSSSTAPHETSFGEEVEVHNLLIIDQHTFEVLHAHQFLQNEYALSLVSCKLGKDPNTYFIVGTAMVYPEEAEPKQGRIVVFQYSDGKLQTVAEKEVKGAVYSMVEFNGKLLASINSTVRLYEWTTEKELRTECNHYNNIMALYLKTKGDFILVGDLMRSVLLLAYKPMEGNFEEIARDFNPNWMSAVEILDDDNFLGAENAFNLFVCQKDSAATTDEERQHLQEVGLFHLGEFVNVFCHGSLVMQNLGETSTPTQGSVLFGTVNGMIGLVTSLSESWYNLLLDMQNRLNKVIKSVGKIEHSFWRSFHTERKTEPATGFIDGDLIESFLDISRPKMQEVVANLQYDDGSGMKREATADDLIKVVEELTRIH
T1 sequence (Q96SW2 whole entry): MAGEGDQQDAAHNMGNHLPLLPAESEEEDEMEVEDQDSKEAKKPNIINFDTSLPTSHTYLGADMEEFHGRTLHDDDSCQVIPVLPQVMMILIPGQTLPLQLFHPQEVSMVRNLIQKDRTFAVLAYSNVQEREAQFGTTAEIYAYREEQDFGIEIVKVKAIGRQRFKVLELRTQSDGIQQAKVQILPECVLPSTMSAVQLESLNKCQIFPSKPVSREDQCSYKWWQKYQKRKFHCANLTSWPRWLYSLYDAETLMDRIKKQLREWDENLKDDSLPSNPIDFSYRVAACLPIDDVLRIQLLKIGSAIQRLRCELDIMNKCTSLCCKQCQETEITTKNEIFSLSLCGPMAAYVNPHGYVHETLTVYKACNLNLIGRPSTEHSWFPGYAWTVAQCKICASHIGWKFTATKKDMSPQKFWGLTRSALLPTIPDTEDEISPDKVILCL

## Cc1sc2c(c1C)C(c1ccc(Cl)cc1)=N[C@@H](CC(=O)Nc1ccc(OCCOCCOCCOCCNc3cc(OS(=O)(=O)F)cc4c3C(=O)N(C3CCC(=O)NC3=O)C4=O)cc1)c1nnc(C)n1-2 (stereo partly shown) [FS-ARV-825]
  % labelled (10 μM, 24 h): ~ 50 % labelled (10 μM, 24 h)
